Consider three compounds from ChEMBL document CHEMBL2424533, “Design and regioselective synthesis of trifluoromethylquinolone derivatives as potent antimicrobial agents” (2013).

Converted amounts (≈) assume the structure as drawn. The source made the active and inactive calls. The rule behind the calls is not given here.

In experiment [1] the test system is Salmonella typhimurium. The experiment in a line: Antimicrobial activity against Salmonella typhimurium MTCC 3732 after 12 hrs by well diffusion method. In kind it is functional, Salmonella enterica subsp. enterica serovar Typhimurium. The note with it: Salmonella enterica, MTCC 3732, 12 h.
Experiment [2] concerns Pseudomonas aeruginosa. The experiment in a line: Antimicrobial activity against Pseudomonas aeruginosa MTCC 4673 after 12 hrs by well diffusion method. The settings on record: MTCC 4673, 12 h. In kind it is functional. Background: Agar diffusion results depend on both activity and mobility in agar.
In experiment [3] the test system is Mycolicibacterium smegmatis. As to the kind of experiment: Antimicrobial activity against Mycobacterium smegmatis MTCC 943 after 12 hrs by well diffusion method. It is filed as functional. The note with it: MTCC 943, 12 h.
Experiment [4] deals with Staphylococcus aureus. The experiment in a line: Antimicrobial activity against Staphylococcus aureus MTCC 3160 after 12 hrs by well diffusion method. It is filed as functional. The note with it: MTCC 3160, 12 h.
The test system of experiment [5] is Salmonella typhimurium. The experiment in a line: Antimicrobial activity against Salmonella typhimurium MTCC 3732 at 100 ug/mL after 12 hrs by well diffusion method. In kind it is functional, Salmonella enterica subsp. enterica serovar Typhimurium. The note with it: for zone of inhibition at 100 µg/mL: Salmonella enterica, MTCC 3732, 12 h, read-out: DIZ.
Experiment [6] relates to Salmonella typhimurium. As to the kind of experiment: Antimicrobial activity against Salmonella typhimurium MTCC 3732 at 50 ug/mL after 12 hrs by well diffusion method. It is filed as functional, Salmonella enterica subsp. enterica serovar Typhimurium. The settings on record: for zone of inhibition at 50 µg/mL: Salmonella enterica, MTCC 3732, 12 h, read-out: DIZ.
Experiment [7] relates to Pseudomonas aeruginosa. The experiment in a line: Antimicrobial activity against Pseudomonas aeruginosa MTCC 4673 at 100 ug/mL after 12 hrs by well diffusion method. In kind it is functional. The note with it: MTCC 4673, 12 h, read-out: DIZ.
For experiment [8], the system named is Pseudomonas aeruginosa. The experiment in a line: Antimicrobial activity against Pseudomonas aeruginosa MTCC 4673 at 50 ug/mL after 12 hrs by well diffusion method. In kind it is functional. The note with it: MTCC 4673, 12 h, read-out: DIZ.
Experiment [9] concerns Mycolicibacterium smegmatis. The experiment in a line: Antimicrobial activity against Mycobacterium smegmatis MTCC 943 at 100 ug/mL after 12 hrs by well diffusion method. The note with it: for zone of inhibition at 100 µg/mL: MTCC 943, 12 h, read-out: DIZ. In kind it is functional.
For experiment [10], the system named is Mycolicibacterium smegmatis. The experiment in a line: Antimicrobial activity against Mycobacterium smegmatis MTCC 943 at 50 ug/mL after 12 hrs by well diffusion method. It is filed as functional. The note with it: MTCC 943, 12 h, read-out: DIZ.
In experiment [11] the test system is Staphylococcus aureus. The experiment in a line: Antimicrobial activity against Staphylococcus aureus MTCC 3160 at 100 ug/mL after 12 hrs by well diffusion method. In kind it is functional. The settings on record: for zone of inhibition at 100 µg/mL: MTCC 3160, 12 h, read-out: DIZ.
Experiment [12] has as its system Staphylococcus aureus. As to the kind of experiment: microbe, parasite or virus in culture. The settings on record: MTCC 3160, 12 h, read-out: DIZ.
Description: (§1) Antimicrobial activity against Staphylococcus aureus MTCC 3160 at 50 ug/mL after 12 hrs by well diffusion method
The subject of experiment [13] is Candida albicans. As to the kind of experiment: Antimicrobial activity against Candida albicans MTCC 183 after 12 hrs by well diffusion method. In kind it is functional. The note with it: MTCC 183, 12 h.
The subject of a further experiment is Penicillium chrysogenum. As to the kind of experiment: Antimicrobial activity against Penicillium chrysogenum MTCC 6795 at 50 to 100 ug/mL after 48 hrs by well diffusion method. In kind it is functional, organism-based.
The test system of experiment [14] is Candida albicans. The experiment in a line: Antimicrobial activity against Candida albicans MTCC 183 at 100 ug/mL after 12 hrs by well diffusion method. In kind it is functional.
Experiment [15] has as its system Candida albicans. The experiment in a line: Antimicrobial activity against Candida albicans MTCC 183 at 50 ug/mL after 12 hrs by well diffusion method. In kind it is functional.
Experiment [16] concerns Staphylococcus aureus. The settings on record: MTCC 3160, 50 ug/mL.
Description: as §1
Where [17] appears, read: Salmonella enterica subsp. enterica serovar Typhimurium.

Consider `O=C(O)c1cn(C2CC2)c2cc(N3CCNCC3)c(F)cc2c1=O` [CIPROFLOXACIN], for which the MIC (against Salmonella typhimurium [1]; in the experiment with Pseudomonas aeruginosa [2]; in experiment [3]; in the experiment with Staphylococcus aureus [4]) was below 5 µg/mL throughout. Further, the zone of inhibition at 100 µg/mL in the experiment with Salmonella typhimurium [5] was determined as 37 mm; in the experiment with Pseudomonas aeruginosa [7], 30 mm; in experiment [9] it was 30 mm; in the experiment with Staphylococcus aureus [11] it was 13 mm. The zone of inhibition at 50 µg/mL with Salmonella typhimurium [6] came to 37 mm; in the experiment on Pseudomonas aeruginosa [8] it was 26.6 mm; in experiment [10], 29 mm; in the experiment with Staphylococcus aureus [12], 13 mm.
Turning to `CCOC(=O)c1cn(Cc2ccc(Cl)cc2Cl)c2c(C(F)(F)F)cccc2c1=O`, the MIC (as a rule, the lowest concentration found to suppress growth) against Candida albicans [13] is above 100 µg/mL; with Salmonella typhimurium [1], above 100 µg/mL; in the experiment with Pseudomonas aeruginosa [2] it was 50 µg/mL (≈ 113 µM); in experiment [3] it was 50 µg/mL (≈ 113 µM); against Staphylococcus aureus [4], 100 µg/mL (≈ 225 µM). Also, in the experiment with Penicillium chrysogenum, the result was inactive. The “diameter of the inhibition zone (DIZ)” value in the experiment with Candida albicans [14], with Candida albicans [15], in the experiment with Salmonella typhimurium [5] (setting [17]) and with Salmonella typhimurium [6] (setting [17]) was “inactive” each time. For the same compound, the zone of inhibition at 100 µg/mL is 7 mm with Pseudomonas aeruginosa [7], 8 mm in [9] and 9 mm in the experiment with Staphylococcus aureus [11]. The zone of inhibition at 50 µg/mL (with Pseudomonas aeruginosa [8]; in experiment [10]) was 7 mm each time. Moreover, in the experiment on Staphylococcus aureus [16], the DIZ entry is “inactive”.
Regarding `CCOC(=O)c1cn(Cc2ccc(C#N)cc2)c2cc(C(F)(F)F)ccc2c1=O`, the minimum inhibitory concentration (MIC) against Candida albicans [13] was above 100 µg/mL; against Salmonella typhimurium [1] it was 50 µg/mL (≈ 125 µM); in the experiment with Pseudomonas aeruginosa [2] it was 25 µg/mL (≈ 62.4 µM); in experiment [3], 50 µg/mL (≈ 125 µM); in the experiment with Staphylococcus aureus [4], above 100 µg/mL. Besides, in the experiment on Penicillium chrysogenum, the result was inactive. Besides, the “diameter of the inhibition zone (DIZ)” value (in the experiment with Candida albicans [14]; with Candida albicans [15]; in experiment [9]; with Staphylococcus aureus [11]) was “inactive” each time. Further, the zone of inhibition at 100 µg/mL in the experiment on Salmonella typhimurium [5] and with Pseudomonas aeruginosa [7] was 8 mm each time. The zone of inhibition at 50 µg/mL with Salmonella typhimurium [6] amounted to 7.3 mm; with Pseudomonas aeruginosa [8], 8 mm; in [10], 7 mm. Besides, the DIZ result with Staphylococcus aureus [16] was “inactive”.
